In ChEMBL document CHEMBL1140773, “Discovery of amide and heteroaryl isosteres as carbamate replacements in a series of orally active gamma-secretase inhibitors” (Bioorg Med Chem Lett, 2008):

Assay: in vivo
Conditions: rat, plasma, po, 10 mg/kg

AUC(0-t) at 6 h [ng·h/mL] | Compound
5810 | O=C(CC1([C@H]2CCC[C@@H](C3CC3)N2S(=O)(=O)c2ccc(Cl)cc2)CC1)N1CC2CCC(C1)N2CCO (mixture of isomers)
2650 | CC[C@@H]1CCC[C@H](C2(CC(=O)N3CC4CCC(C3)N4C)CC2)N1S(=O)(=O)c1ccc(Cl)cc1 (mixture of isomers)
1350 | CC(C)(CO)N1CCN(C(=O)CC2([C@H]3CCC[C@@H](C4CC4)N3S(=O)(=O)c3ccc(Cl)cc3)CC2)CC1 (racemic)
973 | CC[C@@H]1CCC[C@H](C2(Cc3nc(CN(C)C(C)(C)CO)no3)CC2)N1S(=O)(=O)c1ccc(Cl)cc1 (racemic)
26 | CC[C@@H]1CCC[C@H](C2(Cc3nc(CN4CCCC4)no3)CC2)N1S(=O)(=O)c1ccc(Cl)cc1 (racemic)
419 | CC[C@@H]1CCC[C@H](C2(CC(=O)N3CCN4CCCC[C@H]4C3)CC2)N1S(=O)(=O)c1ccc(Cl)cc1 (racemic)
143 | CN(Cc1noc(CC2([C@H]3CCC[C@@H](C4CC4)N3S(=O)(=O)c3ccc(Cl)cc3)CC2)n1)C(C)(C)CO (racemic)
93 | CC[C@@H]1CCC[C@H](C2(CC(=O)N3CCC(N4CCCCC4)CC3)CC2)N1S(=O)(=O)c1ccc(Cl)cc1 (racemic)
1620 | CC[C@@H]1CCC[C@H](C2(CC(=O)N3CCN(C(C)(C)CO)CC3)CC2)N1S(=O)(=O)c1ccc(Cl)cc1 (racemic)
673 | O=C(CC1([C@H]2CCC[C@@H](C3CC3)N2S(=O)(=O)c2ccc(Cl)cc2)CC1)N1CCN2CCCC[C@H]2C1 (racemic)

Compound | AUC(0-t) at 6 h [ng·h/mL]
CC[C@@H]1CCC[C@H](C2(CC(=O)N3CC4CCC(C3)N4CCO)CC2)N1S(=O)(=O)c1ccc(Cl)cc1 (mixture of isomers) | 3220
